Reference: patent US8501787B2, “Compounds for the inhibition of angiogenesis and use thereof” (Shire Orphan Therapies GmbH, priority 2004, dated 2013)
Read-outs that look alike come from different tables or passages of the source.

Legend:
integrin alpha5beta1 = target: T1, integrin alpha5beta1 (Homo sapiens, UniProt P05556+P08648); assay: Alpha5beta1-Fibronectin binding assay (competitive ELISA)
T1 construct: The integrin alpha5beta1 extracellular domain Fc-fusion was expressed and purified; made in house
Procedure: (§1) The optimal concentrations of integrin and ligand were selected from ELISA binding studies with variable concentrations of both to obtain optimal signal noise ratio for further studies. IC50 studies were performed with fixed concentration of ligand and integrin and a serial dilution of inhibitor. The plates were measured with SpectraMax Plus reader (Molecular Devices). The resulting inhibition curves were analyzed using SoftMaxPro 4.0 software, the turning point describes the IC50 value.
(§2) Fibronectin and Vitronectin were purchased from Sigma, fibrinogen from Calbiochem. (EMD Biosciences, Darmstadt, Germany) The integrin alpha5beta1 extracellular domain Fc-fusion was expressed and purified as described in (Coe, 2001, JBC, 276, 35854). Integrins alphavbeta3 and alphavbeta5 were purchased from Chemicon (Chemicon Europe, Germany) and alphaIIbbeta3 form Kordia (Kordia Life Science, Leiden, Netherlands)
Fibronectin was diluted with coating buffer (15 mM Na2CO3, 35 mM NaHCO3, pH9.6) and coated with 100 μL/well to Nunc-Immuno maxisorp plates (Nalge Nunc Europe Ltd) over night at 4° C. After discarding the coating solution plates were washed 3 times with buffer 1 ([…], pH7.6, 150 mM NaCl, 1 mM […], 1 mg/mL BSA) and blocked with 100 μL blocking buffer (3% BSA in PBS 0.1% Tween20) for 1 hour at room temperature. After washing the blocked plates (3 times) with buffer 1, integrin (50 μL) and either inhibitor (serial dilution in buffer 1) or buffer 1 (50 μL) were added to the wells and incubated for one hour at RT. Plates were then washed (3 times) with buffer 1 and incubated with 100 μL of anti-human-Fc-HRP antibody conjugate (Sigma-Aldrich, Taufkirchen, Germany) in buffer 1 for 1 hour at RT. After additional washing steps (3 times) with buffer 1 50 μL of HRP substrate solution TMB (Seramun, Germany) were added to the wells. Colour development was stopped after 3-5 minutes with 50 μL 1M H2SO4. The developed colour was measured at 450 nm and analyzed as described above.

integrin alphavbeta3 = target: T2, integrin alphavbeta3 (Homo sapiens, UniProt P05106+P06756); assay: Vitronectin binding assay, alphavbeta3 (competitive ELISA); conditions: inhibition of integrin binding to vitronectin
T2 construct: purchased Chemicon (Chemicon Europe, Germany)
Procedure: as §1, §2
(§3) Vitronectin was diluted with coating buffer (15 mM Na2CO3, 35 mM NaHCO3, pH9.6) and coated with 100 μL/well to Nunc-Immuno maxisorp plates over night at 4° C. After discarding the coating solution plates were washed 3 times with buffer 1 (25 mM Tris, pH7.6, 150 mM NaCl, 1 mM MnCl2, 1 mg/mL BSA) and blocked with 100 μL blocking buffer (3% BSA in PBS 0.1% Tween20) for 1 hour at room temperature. […] The developed colour was measured at 450 nm and analyzed as described above.

integrin alphavbeta5 = target: T3, integrin alphavbeta5 (Homo sapiens, UniProt P06756+P18084); assay: Vitronectin binding assay, alphavbeta5 (competitive ELISA); conditions: inhibition of integrin binding to vitronectin
T3 construct: purchased Chemicon (Chemicon Europe, Germany)
Procedure: as §1, §2
Vitronectin was diluted with coating buffer (15 mM Na2CO3, 35 mM NaHCO3, pH9.6) and coated with 50 μL/well to Nunc-Immuno maxisorp plates over night at 4° C. […]
Plates were then washed (3 times) with buffer 2 and incubated with 50 μL of anti-alphavbeta5 antibody (Chemicon) in buffer 2 for 1 hour at RT. […] The developed colour was measured at 450 nm and analyzed as described above.

integrin alphaIIbbeta3 = target: T4, integrin alphaIIbbeta3 (Homo sapiens, UniProt P05106+P08514); assay: AlphaIIbbeta3-Fibrinogen binding assay (competitive ELISA); conditions: inhibition of integrin binding to fibrinogen; read-out: IC50 alphabIIbbeta3 in nM
T4 construct: purchased Kordia (Kordia Life Science, Leiden, Netherlands)
Procedure: as §1, §2
as §3, with “Fibrinogen” for “Vitronectin”

retinal angiogenesis = assay: Physiological retinal angiogenesis at newborn rats; format: in vivo, Sprague Dawley rats; conditions: intravitreal injection at P1 and P3, evaluated at P6, compared to vehicle treated and non-treated eye
Description: Rats are born with a completely avascular retina with physiological retinal vascular development occurring in a centripetal manner within the first two weeks of life. At postnatal day P6 approximately 65% is physiologically vascularized, with vascularization being complete by P10-14.
Sprague Dawley rats were used according to protocols which are in conformity with the Association for Research in Vision and Ophthalmology's statements on the Use of Animals in Ophthalmic Research.
Rat pups were taken from within 24 h of birth and injected intravitreally at P1 with 3 μL of selected compound solved in saline. The same injection was repeated at P3. Controls include vehicle injected, as well as uninjected eyes. The animals were sacrificed by decapitation at P6. Upon sacrifice the eyes were enucleated and fixed in 10% buffered formalin phosphate (Fisher Scientific) for 30 minutes at RT. The retinas were dissected and post-fixed in methanol for 10 minutes at −20° C. The retinas were washed with 1% Triton X-100 in PBS and incubated overnight with a 1/100 solution of TRITC conjugated lectin griffonia simplicifolia (Sigma-Aldrich) in 1% Triton X-100 in PBS. […] The percentage of total vascularized area was calculated as a percent of the vascularized area over the total surface area (Adobe-Photoshop).

[1] = system: K562 erythroleukemia cells; assay: Cell adhesion assay with K562 on fibronectin; format: cell-based; conditions: at 0.5 μM; OD 570
Procedure: K562 erythroleukemia cells were obtained from the German Collection of Microorganisms and Cell Cultures GmbH (DMSZ, Braunschweig, Germany). Cells were cultured in RPMI medium containing 10% fetal calf serum, 2 mM glutamine and 100 U/mL penicillin-streptomycin (all from Biochrom AG, Germany).
The cell adhesion assays were performed in 96-well Nunc-Immuno maxisorp plates. The wells were coated for 1 h at 37° C. with 100 μL aliquots of fibronectin (10 μg/mL in phosphate-buffered-saline, 120-kDa fragment, Chemicon Europe, Germany), then blocked with 10 mg/mL heat denatured BSA in phosphate buffer for 30 min.
K562 cells were resuspended to 4×10^6 cells/mL in […], 25 mM Hepes, 2 mM EDTA, pH 7.4, and incubated for 30 min at 37° C. As a next step the cells were washed two times with the same buffer. 100 μL cell aliquots were then added to 100 μL aliquots of the same buffer with in addition 4 mM MgCl2, […] and different concentrations of compounds. These samples were preincubated for 30 min at 37° C. After that 100 μL aliquots were transferred to the microtiter wells and the cells were allowed to adhere to the substrate for 30 min at 37° C. in a humidified atmosphere of 5% CO2. […]
The absorbance of each well at 570 nm was then measured using the SpectraMax Plus reader. […]

[2] = inhibition of integrin binding to fibronectin, read-out: IC50 alpha5beta1 in nM
[3] = method of section 1.1, read-out: Group (binding activities to integrin alpha5beta1)

Row | IC50 (integrin alpha5beta1; [2]) [nM] | IC50 (integrin alpha5beta1; [3]) [nM] | IC50 (integrin alphavbeta3) [nM] | IC50 (integrin alphavbeta5) [nM] | IC50 (integrin alphaIIbbeta3) [nM] | SMILES | retinal angiogenesis (vessel area, % of total retinal area) (retinal angiogenesis) | inhibition of K562 cell adhesion to fibronectin [1]
1 | 3.7 | < 10 | 11.6 | 230 | 9000 | Cc1cc(C)c(S(=O)(=O)N[C@@H](CNC(=O)CO[C@@H]2C[C@@H](CNc3ccccn3)N(C(=O)OCc3ccccc3)C2)C(=O)O)c(C)c1 [Compound 5, 12S,14R,30S-4-{[2-Carboxy-2-(2,4,6-trimethyl-benzenesulfonylamino)-ethylcarbamoyl]-methoxy}-2-(pyridin-2-ylaminomethyl)-pyrrolidine-1-carboxylic acid benzyl ester] | significantly reduced | –
2 | 2.4 | < 10 | ~30000 | > 50000 | > 50000 | Cc1cc(C)c(C(=O)N[C@@H](CNC(=O)CO[C@@H]2C[C@@H](CNc3ccccn3)N(C(=O)OCc3ccccc3)C2)C(=O)O)c(C)c1 [Compound 71, 4-{[2-Carboxy-2-(2,4,6-trimethyl-benzoylamino)-ethylcarbamoyl]-methoxy}-2-(pyridin-2-ylaminomethyl)-pyrrolidine-1-carboxylic acid benzyl ester] | – | significantly active in inhibiting cell adhesion
